{"source": "the supplement of paper PMC10307832", "test_in_all_cases": "relative viability (nuclei count vs DMSO), 5 days (fraction); higher = more cells survive", "key": {"NCI-H2009": {"test_system": "NCI-H2009", "in_short": "(§1)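 Nuclei were stained with Hoechst during a one-step fixation (final 0.05% Triton X-100, 1% formaldehyde, 1 ug/ml Hoechst) carried out 5 days after dosing, then counted on 4× images. The cells, lung cancer lines in 1536-well plates, had been dosed by pin tool the day after seeding with one drug alone or a fixed anchor-drug dose plus five library-drug doses (not always all listed) in √10 steps. Relative viability is the nuclei count in treated wells divided by that in vehicle wells, and each value is the median of duplicate plates.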"}, "NCI-H1355": {"test_system": "NCI-H1355", "in_short": "as §1"}, "PC-3 [JPC-3]": {"test_system": "PC-3 [JPC-3]", "in_short": "as §1"}, "NCI-H460": {"test_system": "NCI-H460", "in_short": "as §1"}, "NCI-H727": {"test_system": "NCI-H727", "in_short": "as §1"}, "ABC-1": {"test_system": "ABC-1", "in_short": "as §1"}, "NCI-H520": {"test_system": "NCI-H520", "in_short": "as §1"}, "PC-14": {"test_system": "PC-14", "in_short": "as §1"}, "NCI-H1975": {"test_system": "NCI-H1975", "in_short": "as §1"}, "NCI-H2126": {"test_system": "NCI-H2126", "in_short": "as §1"}, "NCI-H1993": {"test_system": "NCI-H1993", "in_short": "as §1"}, "NCI-H2347": {"test_system": "NCI-H2347", "in_short": "as §1"}, "NCI-H647": {"test_system": "NCI-H647", "in_short": "as §1"}, "NCI-H1666": {"test_system": "NCI-H1666", "in_short": "as §1"}, "SK-LU-1": {"test_system": "SK-LU-1", "in_short": "as §1"}, "NCI-H441": {"test_system": "NCI-H441", "in_short": "as §1"}, "LCLC-97TM1": {"test_system": "LCLC-97TM1", "in_short": "as §1"}, "SW 1573": {"test_system": "SW 1573", "in_short": "as §1"}, "EMC-BAC-2": {"test_system": "EMC-BAC-2", "in_short": "as §1"}, "NCI-H1755": {"test_system": "NCI-H1755", "in_short": "as §1"}}, "data": [{"smiles": "Cc1cnc(-c2cnc(NCCNc3ccc(C#N)cn3)nc2-c2ccc(Cl)cc2Cl)[nH]1", "note": "+ CC(C)C[C@H](NC(=O)[C@H](Cc1ccccc1)NC(=O)c1cnccn1)B(O)O [Bortezomib] (partner 0.002 µM)", "values": [{"measurement": "relative viability", "setting": "NCI-H2009; first compound 0.08 µM", "result": 1.02}, {"measurement": "relative viability", "setting": "NCI-H2009; first compound 0.253 µM", "result": 0.682}, {"measurement": "relative viability", "setting": "NCI-H2009; first compound 0.8 µM", "result": 1.07}, {"measurement": "relative viability", "setting": "NCI-H2009; first compound 2.53 µM", "result": 0.891}, {"measurement": "relative viability", "setting": "NCI-H1355; first compound 0.08 µM", "result": 1.29}, {"measurement": "relative viability", "setting": "NCI-H1355; first compound 0.253 µM", "result": 0.961}, {"measurement": "relative viability", "setting": "NCI-H1355; first compound 0.8 µM", "result": 1.04}, {"measurement": "relative viability", "setting": "NCI-H1355; first compound 2.53 µM", "result": 1.15}, {"measurement": "relative viability", "setting": "PC-3 [JPC-3]; first compound 0.08 µM", "result": 0.791}, {"measurement": "relative viability", "setting": "PC-3 [JPC-3]; first compound 0.253 µM", "result": 0.818}, {"measurement": "relative viability", "setting": "PC-3 [JPC-3]; first compound 0.8 µM", "result": 0.811}, {"measurement": "relative viability", "setting": "PC-3 [JPC-3]; first compound 2.53 µM", "result": 0.869}, {"measurement": "relative viability", "setting": "NCI-H460; first compound 0.08 µM", "result": 1.18}, {"measurement": "relative viability", "setting": "NCI-H460; first compound 0.253 µM", "result": 1}, {"measurement": "relative viability", "setting": "NCI-H460; first compound 0.8 µM", "result": 1.07}, {"measurement": "relative viability", "setting": "NCI-H460; first compound 2.53 µM", "result": 0.968}, {"measurement": "relative viability", "setting": "NCI-H727; first compound 0.08 µM", "result": 0.877}, {"measurement": "relative viability", "setting": "NCI-H727; first compound 0.253 µM", "result": 0.808}, {"measurement": "relative viability", "setting": "NCI-H727; first compound 0.8 µM", "result": 0.982}, {"measurement": "relative viability", "setting": "NCI-H727; first compound 2.53 µM", "result": 0.889}, {"measurement": "relative viability", "setting": "ABC-1; first compound 0.08 µM", "result": 0.343}, {"measurement": "relative viability", "setting": "ABC-1; first compound 0.253 µM", "result": 0.257}, {"measurement": "relative viability", "setting": "ABC-1; first compound 0.8 µM", "result": 0.347}, {"measurement": "relative viability", "setting": "ABC-1; first compound 2.53 µM", "result": 0.252}, {"measurement": "relative viability", "setting": "NCI-H520; first compound 0.08 µM", "result": 0.72}, {"measurement": "relative viability", "setting": "NCI-H520; first compound 0.253 µM", "result": 0.551}, {"measurement": "relative viability", "setting": "NCI-H520; first compound 0.8 µM", "result": 0.473}, {"measurement": "relative viability", "setting": "NCI-H520; first compound 2.53 µM", "result": 0.523}, {"measurement": "relative viability", "setting": "PC-14; first compound 0.08 µM", "result": 0.804}, {"measurement": "relative viability", "setting": "PC-14; first compound 0.253 µM", "result": 0.84}, {"measurement": "relative viability", "setting": "PC-14; first compound 0.8 µM", "result": 0.82}, {"measurement": "relative viability", "setting": "PC-14; first compound 2.53 µM", "result": 0.814}, {"measurement": "relative viability", "setting": "NCI-H1975; first compound 0.08 µM", "result": 0.412}, {"measurement": "relative viability", "setting": "NCI-H1975; first compound 0.253 µM", "result": 0.391}, {"measurement": "relative viability", "setting": "NCI-H1975; first compound 0.8 µM", "result": 0.425}, {"measurement": "relative viability", "setting": "NCI-H1975; first compound 2.53 µM", "result": 0.328}, {"measurement": "relative viability", "setting": "NCI-H2126; first compound 0.08 µM", "result": 1.09}, {"measurement": "relative viability", "setting": "NCI-H2126; first compound 0.253 µM", "result": 1.09}, {"measurement": "relative viability", "setting": "NCI-H2126; first compound 0.8 µM", "result": 1.12}, {"measurement": "relative viability", "setting": "NCI-H2126; first compound 2.53 µM", "result": 1.15}, {"measurement": "relative viability", "setting": "NCI-H1993; first compound 0.08 µM", "result": 1.23}, {"measurement": "relative viability", "setting": "NCI-H1993; first compound 0.253 µM", "result": 1.07}, {"measurement": "relative viability", "setting": "NCI-H1993; first compound 0.8 µM", "result": 1.1}, {"measurement": "relative viability", "setting": "NCI-H1993; first compound 2.53 µM", "result": 1.26}, {"measurement": "relative viability", "setting": "NCI-H2347; first compound 0.08 µM", "result": 0.812}, {"measurement": "relative viability", "setting": "NCI-H2347; first compound 0.253 µM", "result": 0.914}, {"measurement": "relative viability", "setting": "NCI-H2347; first compound 0.8 µM", "result": 1.16}, {"measurement": "relative viability", "setting": "NCI-H2347; first compound 2.53 µM", "result": 1.13}, {"measurement": "relative viability", "setting": "NCI-H647; first compound 0.08 µM", "result": 0.943}, {"measurement": "relative viability", "setting": "NCI-H647; first compound 0.253 µM", "result": 0.836}, {"measurement": "relative viability", "setting": "NCI-H647; first compound 0.8 µM", "result": 1.05}, {"measurement": "relative viability", "setting": "NCI-H647; first compound 2.53 µM", "result": 0.994}, {"measurement": "relative viability", "setting": "NCI-H1666; first compound 0.08 µM", "result": 0.824}, {"measurement": "relative viability", "setting": "NCI-H1666; first compound 0.253 µM", "result": 0.857}, {"measurement": "relative viability", "setting": "NCI-H1666; first compound 0.8 µM", "result": 0.764}, {"measurement": "relative viability", "setting": "NCI-H1666; first compound 2.53 µM", "result": 0.886}, {"measurement": "relative viability", "setting": "SK-LU-1; first compound 0.08 µM", "result": 1.26}, {"measurement": "relative viability", "setting": "SK-LU-1; first compound 0.253 µM", "result": 0.993}, {"measurement": "relative viability", "setting": "SK-LU-1; first compound 0.8 µM", "result": 1.34}, {"measurement": "relative viability", "setting": "SK-LU-1; first compound 2.53 µM", "result": 1.13}, {"measurement": "relative viability", "setting": "NCI-H441; first compound 0.08 µM", "result": 0.688}, {"measurement": "relative viability", "setting": "NCI-H441; first compound 0.253 µM", "result": 0.352}, {"measurement": "relative viability", "setting": "NCI-H441; first compound 0.8 µM", "result": 0.707}, {"measurement": "relative viability", "setting": "NCI-H441; first compound 2.53 µM", "result": 0.617}, {"measurement": "relative viability", "setting": "LCLC-97TM1; first compound 0.08 µM", "result": 0.844}, {"measurement": "relative viability", "setting": "LCLC-97TM1; first compound 0.253 µM", "result": 0.647}, {"measurement": "relative viability", "setting": "LCLC-97TM1; first compound 0.8 µM", "result": 0.709}, {"measurement": "relative viability", "setting": "LCLC-97TM1; first compound 2.53 µM", "result": 0.362}, {"measurement": "relative viability", "setting": "SW 1573; first compound 0.08 µM", "result": 1.09}, {"measurement": "relative viability", "setting": "SW 1573; first compound 0.253 µM", "result": 0.899}, {"measurement": "relative viability", "setting": "SW 1573; first compound 0.8 µM", "result": 1.13}, {"measurement": "relative viability", "setting": "SW 1573; first compound 2.53 µM", "result": 0.925}, {"measurement": "relative viability", "setting": "EMC-BAC-2; first compound 0.08 µM", "result": 1.17}, {"measurement": "relative viability", "setting": "EMC-BAC-2; first compound 0.253 µM", "result": 1.07}, {"measurement": "relative viability", "setting": "EMC-BAC-2; first compound 0.8 µM", "result": 1.01}, {"measurement": "relative viability", "setting": "EMC-BAC-2; first compound 2.53 µM", "result": 1.07}, {"measurement": "relative viability", "setting": "NCI-H1755; first compound 0.08 µM", "result": 1.02}, {"measurement": "relative viability", "setting": "NCI-H1755; first compound 0.253 µM", "result": 0.889}, {"measurement": "relative viability", "setting": "NCI-H1755; first compound 0.8 µM", "result": 0.828}, {"measurement": "relative viability", "setting": "NCI-H1755; first compound 2.53 µM", "result": 0.994}]}]}
